In patent publication US9144241B2, “Synergistic pesticidal compositions and related methods” (Dow AgroSciences LLC, priority 2013, dated 2015):

System: diamondback moth, Plutella xylostella
Assay: Diamondback moth bioassay on track-sprayed cabbage plants/leaf discs; synergy by Colby's equation
Assay type: in vivo
Settings: single active, second instar larvae, 400 L/Ha spray
Source text: The method described in Colby S. R., “Calculating Synergistic and Antagonistic Responses of Herbicide Combinations,” Weeds, 1967, 15, 20-22 was used to determine an existence of synergic effect between the acetyl CoA carboxylase inhibitor compound and the pesticide (I), (II), or any agriculturally acceptable salt thereof in the formulated pesticidal composition.
Three second instar diamondback moth, Plutella xylostella, were infested onto each leaf disc. […] The “Colby's Expected Action” was calculated using Colby's equation as discussed previously.
Three second instar diamondback moth, Plutella xylostella, were infested onto each leaf disc.
The percent control may be determined some time after treatment.

| SMILES | % Control Three Days After Treatment (dose rate 0.000625 weight %) | % Control Three Days After Treatment (dose rate 0.0025 weight %) | % Control Three Days After Treatment (dose rate 0.0015625 weight %) | % Control Three Days After Treatment (dose rate 0.0015625 weight %, listed as spirotetramat) |
| --- | --- | --- | --- | --- |
| CCN(C(=O)CCSCCC(F)(F)F)c1cn(-c2cccnc2)nc1Cl [Compound I, N-(3-chloro-1-(pyridin-3-yl)-1H-pyrazol-4-yl)-N-ethyl-3-((3,3,3-trifluoropropyl)thio) propanamide] | 0% | no activity |  |  |
| CCOC(=O)OC1=C(c2cc(C)ccc2C)C(=O)N[C@]12CC[C@@H](OC)CC2 [Spirotetramat, cis-3-(2,5-dimethylphenyl)-8-methoxy-2-oxo-1-azaspiro[4.5]dec-3-en-4-yl ethylcarbonate, reference compound] |  |  | 0% | no activity |
| CCN(C(=O)CC[S+]([O-])CCC(F)(F)F)c1cn(-c2cccnc2)nc1Cl (centres unmarked) [Compound II, N-(3-chloro-1-(pyridin-3-yl)-1H-pyrazol-4-yl)-N-ethyl-3-((3,3,3-trifluoropropyl)sulfinyl)propanamide] | 0% |  |  |  |
